According to patent publication US4450269A, “Mono-5-substituted-3-chloro-4H-1,2,6-thiadiazin-4-one antifungal agents” (FMC Corporation, priority 1980, dated 1984):

Legend:
Experiment in all cases: Spore germination test
Assay type in all cases: cell-based
[1] = test system: Uromyces phaseoli; conditions: UP, 48 hours
In short: (§1)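 Compound in acetone was mixed into water agar at final 40, 10, 2.5 and 1 ppm and poured into quadrant dishes. Quadrants received spore suspension, while Erysiphe polygoni and Uromyces phaseoli spores were brushed on from infected leaves. After 48 h at 24 °C, the percentage of germinated spores was converted to a germination rating.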

[2] = test system: Botrytis cinerea; conditions: BC, 48 hours
In short: as §1

[3] = test system: Erysiphe polygoni; conditions: EP, 48 hours
In short: as §1

Measured: Spore Germination Rating

CC(C)(C)c1ccc(Oc2nsnc(Cl)c2=O)cc1 [Compound 4, 3-chloro-5-(4-tert-butylphnoxy)-4H--1,2,6-thiadiazin-4-one]
2 (40-60): [2]; 40 ppm | [3]; 10 ppm
0 (0-10): [1]; 10 ppm | [1]; 40 ppm | [3]; 40 ppm
3 (60-80): [3]; 2.5 ppm
4 (80-100): [1]; 1.0 ppm | [1]; 2.5 ppm | [2]; 1.0 ppm | [2]; 2.5 ppm | [2]; 10 ppm | [3]; 1.0 ppm

Cc1ccc(Cl)c(Oc2nsnc(Cl)c2=O)c1 [Compound 56, 3-chloro-5-[(2-chloro-5-methyl)phenoxy]-4H--1,2,6-thiadiazin-4-one]
2 (40-60): [3]; 2.5 ppm
0 (0-10): [1]; 2.5 ppm | [1]; 10 ppm | [1]; 40 ppm | [2]; 2.5 ppm | [2]; 10 ppm | [2]; 40 ppm | [3]; 10 ppm | [3]; 40 ppm
4 (80-100): [2]; 1.0 ppm | [3]; 1.0 ppm
1 (10-40): [1]; 1.0 ppm

O=c1c(Cl)nsnc1Oc1ccc(Cl)c(Cl)c1 [Compound 16, 3-chloro-5-(3,4-dichlorophenoxy)-4H--1,2,6-thiadiazin-4-one]
4 (80-100): [2]; 1.0 ppm | [3]; 1.0 ppm | [3]; 40 ppm
1 (10-40): [1]; 1.0 ppm | [2]; 2.5 ppm | [2]; 40 ppm | [3]; 10 ppm
3 (60-80): [3]; 2.5 ppm
0 (0-10): [1]; 2.5 ppm | [1]; 10 ppm | [1]; 40 ppm | [2]; 10 ppm

Nc1ccc(Oc2nsnc(Cl)c2=O)cc1 [Compound 26, 5-(4-aminophenoxy)-3-chloro-4H--1,2,6-thiadiazin-4-one]
0 (0-10): [2]; 1.0 ppm | [2]; 2.5 ppm | [2]; 10 ppm | [2]; 40 ppm
4 (80-100): [1]; 10 ppm | [3]; 1.0 ppm | [3]; 2.5 ppm | [3]; 10 ppm | [3]; 40 ppm
3 (60-80): [1]; 2.5 ppm
2 (40-60): [1]; 1.0 ppm | [1]; 40 ppm

Cc1ccc(Oc2nsnc(Cl)c2=O)cc1 [Compound 3, 3-chloro-5-(4-methylphenoxy)-4H--1,2,6-thiadiazin-4-one]
0 (0-10): [1]; 10 ppm | [1]; 40 ppm | [2]; 10 ppm | [2]; 40 ppm
4 (80-100): [1]; 1.0 ppm | [2]; 1.0 ppm | [2]; 2.5 ppm | [3]; 1.0 ppm | [3]; 2.5 ppm | [3]; 10 ppm
1 (10-40): [1]; 2.5 ppm | [3]; 40 ppm

CC(=O)Nc1ccc(Oc2nsnc(Cl)c2=O)cc1 [Compound 8, 5-(4-acetylaminophenoxy)-3-chloro-4H--1,2,6-thiadiazin-4-one]
4 (80-100): [1]; 1.0 ppm | [1]; 2.5 ppm | [2]; 1.0 ppm | [2]; 2.5 ppm | [2]; 10 ppm | [2]; 40 ppm | [3]; 1.0 ppm | [3]; 2.5 ppm | [3]; 10 ppm
0 (0-10): [1]; 10 ppm | [1]; 40 ppm
2 (40-60): [3]; 40 ppm

Cc1ccc(Oc2nsnc(Cl)c2=O)c(Br)c1 [Compound 57, 3-[(2-bromo-4-methyl)-phenoxy]-5-chloro-4H--1,2,6-thiadiazin-4-one]
3 (60-80): [2]; 1.0 ppm
1 (10-40): [2]; 2.5 ppm
0 (0-10): [1]; 1.0 ppm | [1]; 2.5 ppm | [1]; 10 ppm | [1]; 40 ppm | [2]; 10 ppm | [2]; 40 ppm | [3]; 2.5 ppm | [3]; 10 ppm | [3]; 40 ppm
4 (80-100): [3]; 1.0 ppm

O=c1c(Cl)nsnc1Oc1c(Cl)cccc1Cl [Compound 18, 3-chloro-5-(2,6-dichlorophenoxy)-4H--1,2,6-thiadiazin-4-one]
0 (0-10): [1]; 1.0 ppm | [1]; 2.5 ppm | [1]; 10 ppm | [1]; 40 ppm | [2]; 10 ppm | [2]; 40 ppm | [3]; 10 ppm | [3]; 40 ppm
4 (80-100): [2]; 1.0 ppm
2 (40-60): [3]; 1.0 ppm
1 (10-40): [2]; 2.5 ppm | [3]; 2.5 ppm
